What was measured:
Tubulin (Homo sapiens) [1] = target: T1, Tubulin (Homo sapiens) (UniProt P68371+Q9H4B7+P0DPH7+P68366+Q13509+Q71U36+P04350+Q3ZCM7+P07437+P68363+Q9BQE3+Q6PEY2+Q13885+Q9BVA1+Q9BUF5); assay: Binding affinity to microtubules, activity expressed as ID50 of compound/ID50 of paclitaxel; assay type: protein-complex assay
Tubulin (Homo sapiens) [2] = target: T1, Tubulin (Homo sapiens); assay: Binding affinity to microtubules, activity expressed as log 1/ID50 of compound/ID50 of paclitaxel; assay type: protein-complex assay

| SMILES | ID50 ratio (Tubulin (Homo sapiens) [1]) | Log 1/ratio (Tubulin (Homo sapiens) [2]) |
| --- | --- | --- |
| CC(=O)O[C@@]12CO[C@@H]1C[C@H](O)[C@@]1(C)C(=O)[C@H](O)C3=C(C)[C@@H](OC(=O)[C@H](O)Cc4ccccc4)C[C@@](O)([C@@H](OC(=O)c4ccccc4)[C@H]21)C3(C)C | 4.5 | -0.653 |
| CC(=O)O[C@H]1C(=O)[C@@]2(C)[C@H]([C@H](OC(=O)c3ccccc3)[C@]3(O)C[C@H](OC(=O)[C@H](OC(C)=O)[C@@H](NC(=O)c4ccccc4)c4ccccc4)C(C)=C1C3(C)C)[C@]1(OC(C)=O)CO[C@@H]1C[C@@H]2O | 30 | -1.48 |
| C/C=C/C(=O)O[C@H]1C[C@@]2(O)[C@@H](OC(=O)c3ccccc3)[C@@H]3[C@]4(OC(C)=O)CO[C@@H]4C[C@H](O)[C@@]3(C)C(=O)[C@H](OC(C)=O)C(=C1C)C2(C)C | 100 | -2 |
| CC(=O)O[C@@]12CO[C@@H]1C[C@H](O)[C@@]1(C)C(=O)[C@H](O)C3=C(C)[C@@H](OC(=O)/C=C/c4ccccc4)C[C@@](O)([C@@H](OC(=O)c4ccccc4)[C@H]21)C3(C)C | 23 | -1.37 |
| CC(=O)O[C@H]1C(=O)[C@@]2(C)[C@H]([C@H](OC(=O)c3ccccc3)[C@]3(O)C[C@H](OC(=O)[C@H](O)[C@@H](NC(=O)C(C)=O)c4ccccc4)C(C)=C1C3(C)C)[C@]1(OC(C)=O)CO[C@@H]1C[C@@H]2O | 3.5 | -0.544 |
| CC(=O)O[C@@]12CO[C@@H]1C[C@H](O)[C@@]1(C)C(=O)[C@H](O)C3=C(C)[C@@H](OC(=O)[C@H](O)[C@H](NC(=O)c4ccccc4)c4ccccc4)C[C@@](O)([C@@H](OC(=O)c4ccccc4)[C@H]21)C3(C)C | 1.3 | -0.114 |
| CC(=O)O[C@H]1C(=O)[C@@]2(C)[C@H]([C@H](OC(=O)c3ccccc3)[C@]3(O)C[C@H](OC(=O)[C@H](O)[C@@H](NC(=O)c4ccccc4)c4ccc(F)cc4)C(C)=C1C3(C)C)[C@]1(OC(C)=O)CO[C@@H]1C[C@@H]2O | 1.1 | -0.0414 |
| CC(=O)O[C@H]1C(=O)[C@@]2(C)[C@H]([C@H](OC(=O)c3ccccc3)[C@]3(O)C[C@H](OC(=O)[C@H](O)[C@@H](NC(=O)c4ccc(C)cc4)c4ccccc4)C(C)=C1C3(C)C)[C@]1(OC(C)=O)CO[C@@H]1C[C@@H]2O | 1.6 | -0.204 |
| CC(=O)O[C@@]12CO[C@@H]1C[C@H](OC(=O)[C@H](N)Cc1ccccc1)[C@@]1(C)C(=O)[C@H](O)C3=C(C)[C@@H](OC(=O)[C@H](O)[C@@H](NC(=O)OC(C)(C)C)c4ccccc4)C[C@@](O)([C@@H](OC(=O)c4ccccc4)[C@H]21)C3(C)C | 1 | 0 |
| COc1ccc([C@H](NC(=O)c2ccccc2)[C@@H](O)C(=O)O[C@H]2C[C@@]3(O)[C@@H](OC(=O)c4ccccc4)[C@@H]4[C@]5(OC(C)=O)CO[C@@H]5C[C@H](O)[C@@]4(C)C(=O)[C@H](OC(C)=O)C(=C2C)C3(C)C)cc1 | 0.5 | 0.301 |
| CC(=O)O[C@@]12CO[C@@H]1C[C@H](OC(=O)CN)[C@@]1(C)C(=O)[C@H](OC(=O)CN)C3=C(C)[C@@H](OC(=O)[C@H](O)[C@@H](NC(=O)OC(C)(C)C)c4ccccc4)C[C@@](O)([C@@H](OC(=O)c4ccccc4)[C@H]21)C3(C)C | 1.2 | -0.0792 |
| CC(=O)O[C@@]12CO[C@@H]1C[C@H](O)[C@@]1(C)C(=O)[C@H](O)C3=C(C)[C@@H](OC(=O)[C@H](NC(=O)OC(C)(C)C)[C@@H](O)c4ccccc4)C[C@@](O)([C@@H](OC(=O)c4ccccc4)[C@H]21)C3(C)C | 10 | -1 |
| CC(=O)O[C@@]12CO[C@@H]1C[C@H](O)[C@@]1(C)C(=O)[C@H](O)C3=C(C)[C@@H](OC(=O)[C@@H](O)[C@H](NC(=O)c4ccccc4)c4ccccc4)C[C@@](O)([C@@H](OC(=O)c4ccccc4)[C@H]21)C3(C)C | 4 | -0.602 |
| CC(=O)O[C@H]1C(=O)[C@@]2(C)[C@H]([C@H](OC(=O)c3ccccc3)[C@]3(O)C[C@H](OC(=O)[C@H](O)[C@@H](NC(=O)c4ccc(Cl)cc4)c4ccccc4)C(C)=C1C3(C)C)[C@]1(OC(C)=O)CO[C@@H]1C[C@@H]2O | 2.4 | -0.38 |
| CC(=O)O[C@@]12CO[C@@H]1C[C@H](O)[C@@]1(C)C(=O)[C@H](O)C3=C(C)[C@@H](OC(=O)[C@@H](NC(=O)OC(C)(C)C)[C@H](O)c4ccccc4)C[C@@](O)([C@@H](OC(=O)c4ccccc4)[C@H]21)C3(C)C | 160 | -2.2 |

Other lines, results leading:

| ID50 ratio (Tubulin (Homo sapiens) [1]) | Log 1/ratio (Tubulin (Homo sapiens) [2]) | SMILES |
| --- | --- | --- |
| 30 | -1.48 | CC(=O)O[C@@]12CO[C@@H]1C[C@H](O)[C@@]1(C)C(=O)[C@H](O)C3=C(C)[C@@H](OC(=O)[C@@H](O)[C@H](NC(=O)OC(C)(C)C)c4ccccc4)C[C@@](O)([C@@H](OC(=O)c4ccccc4)[C@H]21)C3(C)C |
| 2.4 | -0.38 | CC(=O)O[C@H]1C(=O)[C@@]2(C)[C@H]([C@H](OC(=O)c3ccccc3)[C@]3(O)C[C@H](OC(=O)[C@H](O)[C@@H](NC(=O)c4ccccc4)c4ccc(C)cc4)C(C)=C1C3(C)C)[C@]1(OC(C)=O)CO[C@@H]1C[C@@H]2O |
| 10 | -1 | CC(=O)O[C@@]12CO[C@@H]1C[C@H](O)[C@@]1(C)C(=O)[C@H](O)C3=C(C)[C@@H](OC(=O)[C@H](NC(=O)c4ccccc4)[C@@H](O)c4ccccc4)C[C@@](O)([C@@H](OC(=O)c4ccccc4)[C@H]21)C3(C)C |
| 1 | 0 | CC(=O)O[C@@]12CO[C@@H]1C[C@H](O)[C@@]1(C)C(=O)[C@H](O)C3=C(C)[C@@H](OC(=O)[C@H](O)[C@@H](NC(=O)CCCC(=O)O)c4ccccc4)C[C@@](O)([C@@H](OC(=O)c4ccccc4)[C@H]21)C3(C)C |
| 0.8 | 0.0969 | CCCCOC(=O)N[C@@H](c1ccccc1)[C@@H](O)C(=O)O[C@H]1C[C@@]2(O)[C@@H](OC(=O)c3ccccc3)[C@@H]3[C@]4(OC(C)=O)CO[C@@H]4C[C@H](O)[C@@]3(C)C(=O)[C@H](OC(C)=O)C(=C1C)C2(C)C |
| 0.8 | 0.0969 | CC(=O)O[C@H]1C(=O)[C@@]2(C)[C@H]([C@H](OC(=O)c3ccccc3)[C@]3(O)C[C@H](OC(=O)[C@H](O)[C@@H](NC(=O)c4ccccc4)c4ccc(O)cc4)C(C)=C1C3(C)C)[C@]1(OC(C)=O)CO[C@@H]1C[C@@H]2O |
| 0.6 | 0.222 | COc1ccc(C(=O)N[C@@H](c2ccccc2)[C@@H](O)C(=O)O[C@H]2C[C@@]3(O)[C@@H](OC(=O)c4ccccc4)[C@@H]4[C@]5(OC(C)=O)CO[C@@H]5C[C@H](O)[C@@]4(C)C(=O)[C@H](OC(C)=O)C(=C2C)C3(C)C)cc1 |
| 6 | -0.778 | CC(=O)O[C@H]1C(=O)[C@@]2(C)[C@H]([C@H](OC(=O)c3ccccc3)[C@]3(O)C[C@H](OC(=O)[C@H](O)[C@@H](NC(=O)c4ccc(C(F)(F)F)cc4)c4ccccc4)C(C)=C1C3(C)C)[C@]1(OC(C)=O)CO[C@@H]1C[C@@H]2O |
| 10 | -1 | CC(=O)O[C@H]1C(=O)[C@@]2(C)[C@H]([C@H](OC(=O)c3ccccc3)[C@]3(O)C[C@H](OC(=O)[C@H](NC(=O)OC(C)(C)C)[C@@H](O)c4ccccc4)C(C)=C1C3(C)C)[C@]1(OC(C)=O)CO[C@@H]1C[C@@H]2O |
| 30 | -1.48 | CC(=O)O[C@H]1C(=O)[C@@]2(C)[C@H]([C@H](OC(=O)c3ccccc3)[C@]3(O)C[C@H](OC(=O)[C@@H](O)[C@H](NC(=O)OC(C)(C)C)c4ccccc4)C(C)=C1C3(C)C)[C@]1(OC(C)=O)CO[C@@H]1C[C@@H]2O |
| 0.7 | 0.155 | CC(=O)O[C@H]1C(=O)[C@@]2(C)[C@H]([C@H](OC(=O)c3ccccc3)[C@]3(O)C[C@H](OC(=O)[C@H](O)[C@@H](NC(=O)CC(C)(C)C)c4ccccc4)C(C)=C1C3(C)C)[C@]1(OC(C)=O)CO[C@@H]1C[C@@H]2O |
| 1.7 | -0.23 | CC(=O)O[C@H]1C(=O)[C@]2(C)[C@@H](OC(=O)c3ccccc3)C[C@H]3OC[C@@]3(OC(C)=O)[C@H]2[C@H](OC(=O)c2ccccc2)[C@]2(O)C[C@H](OC(=O)[C@H](O)[C@@H](NC(=O)c3ccccc3)c3ccccc3)C(C)=C1C2(C)C |
| 110 | -2.04 | CC(=O)O[C@H]1C(=O)[C@@]2(C)[C@H]([C@H](OC(=O)c3ccccc3)[C@]3(O)C[C@H](OC(=O)[C@@H](NC(=O)c4ccccc4)[C@H](O)c4ccccc4)C(C)=C1C3(C)C)[C@]1(OC(C)=O)CO[C@@H]1C[C@@H]2O |
| 0.5 | 0.301 | CC(=O)O[C@@]12CO[C@@H]1C[C@H](O)[C@@]1(C)C(=O)[C@H](O)C3=C(C)[C@@H](OC(=O)[C@H](O)[C@@H](NC(=O)OC(C)(C)C)c4ccccc4)C[C@@](O)([C@@H](OC(=O)c4ccccc4)[C@H]21)C3(C)C (stereo in doubt; 39) |
| 30 | -1.48 | CC(=O)O[C@@]12CO[C@@H]1C[C@H](O)[C@@]1(C)C(=O)[C@H](O)C3=C(C)[C@@H](OC(=O)[C@H](O)[C@H](N)c4ccccc4)C[C@@](O)([C@@H](OC(=O)c4ccccc4)[C@H]21)C3(C)C |
| 1 | 0 | CC(=O)O[C@H]1C(=O)[C@]2(C)[C@@H](OC(=O)[C@H](N)CCC(=O)O)C[C@H]3OC[C@@]3(OC(C)=O)[C@H]2[C@H](OC(=O)c2ccccc2)[C@]2(O)C[C@H](OC(=O)[C@H](O)[C@@H](NC(=O)c3ccccc3)c3ccccc3)C(C)=C1C2(C)C |
| 108 | -2.03 | CC(=O)O[C@H]1C(=O)[C@@]2(C)[C@H]([C@H](OC(=O)c3ccccc3)[C@]3(O)C[C@H](OC(=O)[C@@H](NC(=O)OC(C)(C)C)[C@H](O)c4ccccc4)C(C)=C1C3(C)C)[C@]1(OC(C)=O)CO[C@@H]1C[C@@H]2O |

— ChEMBL document CHEMBL1127973, “A comparative molecular field analysis derived model of the binding of taxol analogues to microtubules” (Bioorg Med Chem Lett, 1994)
